Measurements: article PMC5561212, “In Vitro Micropatterned Human Pluripotent Stem Cell Test (µP-hPST) for Morphometric-Based Teratogen Screening” (Scientific Reports, 2017)
Values after ≈ are worked out from the molar mass of the structure shown. Like-named read-outs stand apart in the source and are kept apart here.

Experiments:
[1] = test system: µP-hPSC colonies (H9) under mesoendoderm induction; test: µP-hPST: mesoendoderm pattern disruption in µP-hPSC colonies and two-step teratogen classification; details: for Teratogenicity in µP-hPST (in words) / Teratogenicity in µP-hPST: two-step classification rule
[2] = test system: µP-hPSC colonies (H9) under mesoendoderm induction; set-up: method as in earlier work; details: compounds tested previously; cited from earlier work
[3] = cited from earlier work; for In vivo teratogenicity (in words): Supplementary Tables S2, S3; for In vivo teratogenicity: Table 1, known teratogenicity
[4] = cited from earlier work
[5] = test system: mouse embryonic stem cell; set-up: method as in PMID 19678733; details: cited from earlier work
[6] = test system: adult human dermal fibroblasts (aHDF); test: Cytotoxicity assay (MTS), general cytotoxicity; type: cell-based; details: aHDF cells, 3 days, 25% inhibitory concentration
Protocol: (§1) A set of 30 compounds of known teratogenicity was selected to establish and validate the µP-hPST (Table 1). The compounds include equal number of non-teratogens and teratogens, and differ in chemical property and therapeutic usage. Before tested in the µP-hPSC colonies, the cytotoxicity profile of each compound was acquired. Two cell lines, hPSC line H9 and adult human dermal fibroblast line aHDF, were tested to represent embryonic cytotoxicity and general cytotoxicity of the compound respectively (Supplementary Figs S1, S2). The IC25 values, which were the 25% inhibitory concentrations, were calculated as the highest non-cytotoxic concentrations of the compound (Table 2, Fig. 1).
(§2) Human embryonic cell line H9 (WiCell Research Institute, Inc) and adult human dermal fibroblast (aHDF, Lonza) were cultured as previously described. Briefly, H9 cells were cultured in tissue culture plates coated with Matrigel^TM (354277, BD Biosciences) in mTeSR^TM1 medium (05850, StemCell^TM Technologies). Dispase (07923, StemCell^TM Technologies) treatment and mechanical scraping were applied during normal subculture. The aHDF cells was cultured in DMEM medium (10569-010, Gibco), supplemented with 10% FBS (SV30160.03, Thermo Scientific Hyclone) and 1% Pen-Strep (09367-34, Nacalai Tesque). Cells were subcultured every 5–6 days using 0.25% Trypsion-EDTA (25200-114, Gibco) to detach the cells.
(§3) The adverse effect of test compounds on cell proliferation and viability was detected using CellTiter 96® AQueous One Solution Cell Proliferation Assay (MTS, G3580, Promega). 10,000 H9 cells or 500 aHDF cells were seeded in 96-well tissue culture plates. For H9 cells, Matrigel^TM was coated before seeding. For each compound, 8 concentrations from serial 5-fold dilutions were tested besides the vehicle controls. Cells were cultured for 3 days with medium half change every day before cell viability was measured. Each drug was tested in three independent runs and its IC25 values (inhibitory concentrations which can cause 25% of reduction in cell number) were acquired by logistic regression using OriginPro 9.

[7] = test system: human embryonic cell line H9; test: Cytotoxicity assay (MTS), embryonic cytotoxicity; type: cell-based; details: H9 cells, 3 days, 25% inhibitory concentration
Protocol: as §1, §2, §3

[8] = test system: µP-hPSC colonies (H9) under mesoendoderm induction
hPSC = test system: hPSC; set-up: method as in PMID 24123775; details: cited from earlier work
[9] = test system: human pluripotent stem cells; set-up: method as in PMID 24154490; details: cited from earlier work
[10] = human plasma, ref U.S. FDA website, EMA website or published journals (Supplementary Table S1)

SMILES | Teratogenicity in µP-hPST (in words) [1] | LDC [2] | In vivo teratogenicity (in words) [3] | Teratogenicity in µP-hPST [1] | IC25aHDF [6] [µg/mL] | IC25H9 [7] [µg/mL] | In vivo teratogenicity [3] | Teratogenicity in other in vitro assays [9] | Cmax [4, 10] [ng/mL] | other results
CCCC(CCC)C(=O)O [Valproic acid] | Teratogen | 0.1 mM | Teratogen |  |  |  |  |  |  | 
CC(C)(S)[C@@H](N)C(=O)O [D-penicillamine] | Teratogen | 200 µg/mL | Teratogen |  |  |  |  |  |  | Cmax ([4]; compounds tested previously): 200000 ng/mL
O=C1CCC(N2C(=O)c3ccccc3C2=O)C(=O)N1 (centres unmarked) [Thalidomide] | Teratogen | 0.03 mM | Teratogen |  |  |  |  |  |  | Cmax ([4]; compounds tested previously, read-out: Cmax): 10.9 µM
NS(=O)(=O)c1cc(C(=O)O)c(NCc2ccco2)cc1Cl [Furosemide] | teratogen |  | Teratogen | TER | 30 (≈ 90.7 µM) | 362 (≈ 1090 µM) | TER |  |  | Classification in mEST (in words) [5]: misclassified; Teratogenicity in other in vitro assays [5]: NON[28]
CC1=C(/C=C/C(C)=C/C=C/C(C)=C/C(=O)O)C(C)(C)CCC1 [Retinoid acid] |  | 0.00036 µg/mL | Teratogen |  |  |  |  |  |  | Step1: Is LDC <= IC25 aHDF & IC25H9? [8]: Y; Teratogenicity in µP-hPST (in words) [8]: Teratogen; Cmax ([4]; compounds tested previously): 347 ng/mL
O=c1[nH]cc(F)c(=O)[nH]1 [5-Fluorouracil] |  |  | Teratogen | TER |  |  | TER | TER[6], [7] | 48400 | Mesoendoderm pattern disruption seen in T fluorescent images ([1]; 3 days of compound exposure, in words): promote both cell differentiation and migration; Teratogenicity in other in vitro assays (hPSC): TER[6], [7]
O=C1Cc2cc(CCN3CCN(c4nsc5ccccc45)CC3)c(Cl)cc2N1 [Ziprasidone] |  |  | Teratogen | TER | 2.7 (≈ 6.54 µM) | 14.4 (≈ 34.9 µM) | TER | TER[7] | 200 | 
COc1cc2c(Nc3ccc(Br)cc3F)ncnc2cc1OCC1CCN(C)CC1 [Vandetanib] |  |  | Teratogen | TER | 1.1 (≈ 2.31 µM) | 0.3 (≈ 0.631 µM) | TER | TER[7] | 400 | 
COc1cccc2c1C(=O)c1c(O)c3c(c(O)c1C2=O)C[C@@](O)(C(=O)CO)C[C@@H]3O[C@H]1C[C@H](N)[C@H](O)[C@H](C)O1 [Doxorubicin] |  |  | Teratogen | TER |  | 0.0002 (≈ 0.000368 µM) | TER | TER[7] | 370 | IC25aHDF ([6]; listed as Doxirubicin): < 1 µg/mL; IC25H9 ([7]; listed as Doxirubicin): < 1 µg/mL
COc1ccc2nc([S@@+]([O-])Cc3ncc(C)c(OC)c3C)[nH]c2c1 [Esomeprazole] |  |  |  | NON | 42.1 (≈ 122 µM) | 38.9 (≈ 113 µM) | NON | NON[7] | 1620 | 
